Measured values taken from US20080103086A1, “METHODS FOR THE TREATMENT OF DISEASES ASSOCIATED WITH THE SECRETION OF HMGB1” (priority 2006, published 2008).

Tests used:
HMGB1-GFP = HMGB1-GFP imaging in transfected RAW 264.7 cells; assay type: cell-based, Murine; conditions: OA 100 nM 4 h, TSA 10 ng/mL 2 h, TNF-α 20 ng/mL 16 h
Method: RAW 264.7 cells (A) and human PBMo cells (B) were treated with OA (100 nM for 8 h), and immunofluorescent staining was performed to observe the HMGB1. TNF-α (20 ng/mL for 16 h) was used as a positive control cytokine. […] (C) Western blot analysis of HMGB1 protein in the culture supernatants of PBMo cells, which were from (B). (D) HMGB1 in the nucleus is transported to the cytoplasm by phosphorylation. RAW 264.7 cells were transfected with a wild type HMGB1-GFP plasmid and cultured for 24 h. And then the cells were treated with 2 μg/mL CHX for 1 h followed by OA treatment for 4 h or by TSA treatment for 2 h and green fluorescent images were observed. Bar: 10 μm.
FIGS. 6A-6E show Mutation of HMGB1 NLS sites alters subcellular distribution of HMGB1. (A) RAW 264.7 cells were transfected with wild-type and each mutant HMGB1-GFP plasmid and immunofluorescent assays were performed 24 h later without any treatment. (B, C, and D) OA (100 nM for 4 h), TSA (10 ng/mL for 2 h), and TNF-α (20 ng/mL for 16 h) were applied 24 h after transfection to observe the effect on HMGB1 nuclear export by phosphorylation, acetylation, or both. […] (E) Secretion of wild-type and each mutant HMGB1-GFP was tested 24 h after transfection by Western blotting. The culture supernatants were concentrated and blotted with anti-GFP. Bar: 10 μm. […]

HMGB1 binding to KAP-α1 = experiment: GST-KAP-α1 pull-down of HMGB1 from treated RAW 264.7 cell lysates; conditions: GST-KAP-α1 on glutathione-Sepharose beads; WCLs of treated RAW 264.7 cells
Method: FIGS. 4A-4C show the binding of HMGB1 to nuclear import proteins. (A) GST-KAP-α1, -2, -3, -4, -5, -6, and -β1 fusion proteins immobilized on glutathione-Sepharose 4B beads were incubated with WCLs of RAW 264.7 cells overnight at 4° C. Sepharose-bound proteins were separated and the membrane was blotted with anti-HMGB1 and reblotted with anti-GST. WCL was loaded as an HMGB1 control (lane 1), and GST protein was used as a negative control (lane 2). (B) Six His-tagged wild type HMGB1 and boxes A (aa 1-87) and B (aa 88-162) HMGB1 proteins were purified from E. coli BL21 and identified at expected size by Coomassie blue staining. HMGB1 and GST-KAP-α1 was incubated for 2 h at 4° C., and the precipitate was blotted with anti-His for HMGB1 and reblotted with anti-GST for KAP-α1. (C) GST-KAP-α1, immobilized on glutathione-Sepharose beads, was incubated with WCLs of RAW 264.7 cells which were treated with OA, TSA, or TNF-α. The precipitates were blotted with anti-HMGB1 and reblotted with anti-GST.
Two μg of each GST-KAP protein was coupled to glutathione sepharose 4B beads and incubated with 500 μg of WCL from RAW 264.7 cells as a HMGB1 source at 4° C. overnight. […]

HMGB1 = HMGB1 relocation from nucleus to cytoplasm in RAW 264.7 cells (fraction Western blot, immunofluorescence); assay type: cell-based, Murine; conditions: OA 100 nM for 8 h, TNF-α 20 ng/mL for 16 h
Method: (A) RAW 264.7 cells were treated with TNF-α (20 ng/mL for 16 h) or OA (100 nM for 8 h). The nuclear (Nu) and cytoplasmic (Cyt) proteins were separated and blotted with anti-HMGB1. (B) Metabolic [^32P] labeling of HMGB1 in RAW 264.7 cells. RAW 264.7 cells were metabolically labeled with [^32P]orthophosphate for 4 h, and stimulated with OA (100 nM), TNF-α (20 ng/mL) and LPS (100 ng/mL) for 2 or 8 h. WCLs were immunoprecipitated with rabbit anti-HMGB1 from two different vendors of BD PharMingen (BD) and Upstate Biotechnology (UP). The proteins were resolved and transferred to nitrocellulose membrane and visualized by autoradiography. (C) RAW 264.7 cells were treated with TNF-α, and WCLs were immunoprecipitated with anti-pSer, anti-pTyr, and anti-pThr and blotted with anti-HMGB1. WCL was loaded as an HMGB1 control (lane 1). Anti-pAKT was used for a control antibody (lane 3). […]
To analyze the secretion of HMGB1 in the supernatants, culture media were replaced with serum-free OPTI-MEM (Gibco BRL) medium and concentrated with Amicon Centricon filtration (Millipore) after removing cell debris, and Western blot analysis was performed. […] The cells were lysed using 1% Nonidet P-40 buffer containing a protease inhibitor cocktail (Sigma), and the protein concentrations were measured by Bradford assay (Biorad) for the analysis of whole cell lysates (WCLs). […]

HMGB1 phosphorylation = experiment: Metabolic [32P] labeling / immunoprecipitation of HMGB1 phosphorylation in RAW 264.7 cells; assay type: cell-based, Murine
Method: (A) RAW 264.7 cells were treated with TNF-α (20 ng/mL for 16 h) or OA (100 nM for 8 h). The nuclear (Nu) and cytoplasmic (Cyt) proteins were separated and blotted with anti-HMGB1. (B) Metabolic [^32P] labeling of HMGB1 in RAW 264.7 cells. RAW 264.7 cells were metabolically labeled with [^32P]orthophosphate for 4 h, and stimulated with OA (100 nM), TNF-α (20 ng/mL) and LPS (100 ng/mL) for 2 or 8 h. WCLs were immunoprecipitated with rabbit anti-HMGB1 from two different vendors of BD PharMingen (BD) and Upstate Biotechnology (UP). The proteins were resolved and transferred to nitrocellulose membrane and visualized by autoradiography. (C) RAW 264.7 cells were treated with TNF-α, and WCLs were immunoprecipitated with anti-pSer, anti-pTyr, and anti-pThr and blotted with anti-HMGB1. WCL was loaded as an HMGB1 control (lane 1). Anti-pAKT was used for a control antibody (lane 3). (D) RAW 264.7 cells were treated with TNF-α for the indicated time. WCLs were immunoprecipitated with anti-HMGB1, blotted with anti-pSer and reblotted with anti-HMGB1. The same culture supernatants were concentrated, separated, and blotted with anti-HMGB1.
To identify the phosphorylated residues of the HMGB1 protein, TNF-α-treated RAW 264.7 cells were lysed with a protease inhibitor cocktail. Cell homogenates were centrifuged at 20,000 g for 15 min and precleared by incubation with protein G-Sepharose (Amersham) at 4° C. for 30 min. The precleared extracts (500 μg) were incubated with rabbit polyclonal anti-pSer, anti-pTyr and anti-pThr (all from Chemicon) and then protein G-Sepharose was added and incubated for 3 h at 4° C. […]
RAW 264.7 cells were cultured in phosphate starved condition of phosphate-free DMEM containing 10% dialyzed FBS (Gibco BRL) for 4 h and further incubated for 4 h by adding 600 μCi of [^32P]orthophosphate (Amersham Pharmacia Biotech) per mL to each dish. […] The concentration of total soluble proteins in the supernatant was quantified using the Bradford reagent (Bio-Rad). […] The gels were dried and the radioactivity was analyzed by autoradiography.

CC(/C=C/C(=O)NO)=C\[C@@H](C)C(=O)c1ccc(N(C)C)cc1 [TSA, trichostatin A]
HMGB1-GFP (wild-type and mutants) relocation 24 h after transfection (HMGB1-GFP): the wild-type and all mutant HMGB1-GFPs showed cytoplasmic relocation
binding of HMGB1 from treated cell lysate to KAP-α1 (HMGB1 binding to KAP-α1): no binding to KAP-α1

TNF-α
HMGB1 in the cytoplasm (nuclear/cytoplasmic fractions, Western blot) (HMGB1): translocation of nuclear HMGB1 to the cytoplasm
level of phosphorylated (p-) HMGB1 (IP anti-HMGB1, blot anti-pSer) (HMGB1 phosphorylation; RAW 264.7 cells treated with TNF-α for the indicated time): increased by TNF-α in a time-dependent manner
phosphorylated amino acid residue of HMGB1 (IP anti-pSer, anti-pTyr, anti-pThr) (HMGB1 phosphorylation; RAW 264.7 cells, 20 ng/mL TNF-α for 16 h): Only serine residues of HMGB1 were phosphorylated
HMGB1 phosphorylation ([32P]orthophosphate labeling, autoradiography) (HMGB1 phosphorylation; RAW 264.7 cells, 100 nM OA, 20 ng/mL TNF-α, 100 ng/mL LPS, 2 or 8 h): phosphorylated
HMGB1-GFP (wild-type and mutants) relocation 24 h after transfection (HMGB1-GFP): The same results were observed
